Measurements published in patent US10927075B2, “Compositions and methods relating to the treatment of cancer, autoimmune disease, and neurodegenerative disease” (THE JACKSON LABORATORY, priority 2014, dated 2021).
Entries after “also recorded” stand apart in the source; their conditions may differ.

Experiments:
primary B-cells (AID+) = test: Dose response in primary B-cells (AID+); format: cell-based; conditions: FIG. 10
Procedure: Dose responses for C-1523 (blue) and C-1523-1a (red) in primary B-cells (AID+) was determined (FIG. 10).

CH12-F3 cells = test: Radiosensitivity (viability after ionizing irradiation); format: cell-based, mouse; conditions: 50 nM, 100 nM, or 150 nM; 0 or 2.5Gy
Procedure: FIG. 13A depicts a viability analysis of C-1523-treated CH12-F3 cells 24 h after 0 or 2.5 Gy IR. Data are normalized to the fraction of cells for each IR dose that received DMSO vehicle only; error bars represent the SEM for three independent experiments. FIG. 13B depicts detection of RAD51 by immunofluorescence in primary mouse B cells 24 h after 0 or 2.5 Gy IR and treatment with C-1523 (100 nM) or vehicle. RAD51 staining is in red, nuclear DNA (DAPI-stained) is in blue. Scale bar: 10 μM. FIG. 13C depicts the quantification of cells with nuclear RAD51 (RAD51+) from FIG. 13B. Error bars represent the SEM for three independent experiments. FIG. 13D depicts the quantitation of RAD51 expression in nuclear and cytoplasmic fractions as determined by Western Blot. Values represent the average of three independent experiments and error bars are the SEM. FIG. 13E depicts the immunofluorescent detection of NF-κB localization in primary murine B cells. […] FIG. 13F depicts the quantitation of nuclear NF-κB staining from FIG. 13E. […]
C-1523 disrupts RAD51 nucleocytoplasmic distribution and damage induced relocalization. To assess the DNA repair inhibitory activity of C-1523, radiosensitivity was measured in the mouse leukemia cell line, CH12-F3, with or without C-1523. […] Cells were allowed to recover in culture in the presence of C-1523 (or vehicle control) and viable cells were quantified. […]

HEK293T cells = test: Sister chromatid exchange assay; format: cell-based, human; conditions: 100 nM, relative to DMSO vehicle
Text: C-1523 inhibits Sister Chromatid Exchange. […] To directly measure the effect of C-1523 on RAD51-mediated homologous recombination, we measured sister chromatid exchange and HR repair of an endonuclease generated DSB. Sister chromatid exchange (SCE) is a RAD51-mediated homologous recombination event between replicated sister chromatids in replicative or post-replicative cells, and reflects repair of replication-associated DNA damage. SCE can be measured following differential chromatid labeling by BrdU incorporation (Latt and Schreck, 1980). SCE is known to occur at a high rate in HEK293T cells, with approximately 0.25 spontaneously occurring exchange events per chromosome (FIGS. 14A, 14C) (Londono-Vallejo et al., 2004).
Propidium Iodide and flow cytometry.

[1] = system: WT, AID−/−, or Trp53−/− B-cells; test: Active caspase-3 (AC3) immunofluorescence; format: cell-based, mouse; conditions: 100 nM, 3 days after activation
Procedure: FIG. 16A depicts the measurement of viability of primary WT (AID+/+, circle markers), AID−/− (square markers), and p53−/− (triangle markers) B cells under activating conditions (αCD40 and IL-4 on days 0 and 2) and treated with either DMSO (filled in markers) or 100 nM C-1523 (open markers). Measurement of cell viability was determined by Trypan Blue staining and counting of viable, non-staining, cells via hemocytometer. Data are represented as the mean cell count for each condition. FIG. 16B depicts analysis of cell death on day 4 of cells treated as in FIG. 16A. Cell death was measured by Trypan Blue staining and counting of blue, dead cells via hemocytometer. FIG. 16C depicts quantitation of active caspase-3 (AC3) in primary B cells via immunofluorescence assay. Left, positive (WT, 10 Gy IR) and negative (0 Gy, and p53−/− 10 Gy) controls for AC3 induction. […]
Cell death mediated by C-1523 is p53-dependent. […] To test the importance of p53, a central regulator of cellular responses to DNA damage, viability was measured in mouse primary B-cells from Trp53+/+ versus Trp53−/− mice following exposure to C-1523. […] Caspase 3 activation, a marker of apoptotic cell death, was measured in C-1523 treated B-cells. B-cells were stained with an antibody that recognizes cleaved, activated caspase-3 (AC3) and the number of AC3-positive cells was measured via immunofluorescence microscopy. […]

AID+/+ or AID−/− B-cells = test: Cell cycle analysis by propidium iodide staining and flow cytometry; format: cell-based; conditions: 100 nM, up to 96 hours
Procedure: (§1) AID+/+ or AID−/− B-cells were cultured with 100 nM and cell cycle profiles were determined by propidium iodide staining and flow cyotmetry at intervals up to 96 hours. Non-activated (CD40) cells were used as a negative control; activated cells treated with the microtuble poison colcemid (ACT+colcemid) were used as a positive control.
as §1, with “control. Nuclei fragmentation analysis of primary, AID expressing B-cells treated with 100 nM C-1523 was conducted (FIG. 22).” for “control.”

CC(=O)Nc1ccc(/C=C/c2ccc(NC(=S)NC(C)C)cc2S(=O)(=O)O)c(S(=O)(=O)O)c1 [C-1523, (E)-5-acetamido-2-(4-(3-isopropylthioureido)-2-sulfonatostyryl)benzenesulfonate]
concentration above which dose response is inverted (primary B-cells (AID+)): above 100 nM
sensitivity to ionizing irradiation (CH12-F3 cells): sensitivity to ionizing irradiation at every concentration tested
median number of SCE events per chromosome (HEK293T cells): significantly reduced
caspase 3 activation [1]: did not significantly induce caspase 3 activation
effect on cell cycle (AID+/+ or AID−/− B-cells): minimal effect on cell cycle; also recorded: minimal differences
